From patent publication US20250262333A1, “Construct for Transferring Foreign Substance, and Use Thereof” (TOAGOSEI CO., LTD., priority 2022, published 2025)
FAM = 5(6)-carboxyfluorescein (C21H12O7), a fluorescent dye

Test system: HeLa cells
Experiment: Evaluation of cell membrane penetration by flow cytometry
Type: cell-based, human
Conditions: for MFI (mean fluorescence intensity): 10 μM additive, 0.5% DMSO, 20 hours at 37° C., 5% CO2, FAM fluorescence, detector FL2
Experimental: As the eukaryotic cells, HeLa cells (established cell strain derived from a human cervical cancer cell) were used and the cell membrane penetration of the peptides 1 to 6 was analyzed. In Examples 1 to 6, the prepared samples 1 to 6 were used, respectively, and in Example 7, the FAM solution was used.
The HeLa cell was cultured in 10% fetal bovine serum (FBS)-containing Dulbecco's modified Eagle's medium (DMEM (Cat No. 043-30085, manufactured by FUJIFILM Wako Pure Chemical Corporation)), which is a normal culture medium.
The HeLa cell that adhered to a culture plate was cleaned with PBS and then, a 0.25%-trypsin/EDTA solution was added thereto, and incubation was performed for three minutes at 37° C. After the incubation, the aforementioned 10% FBS-containing DMEM was added to deactivate trypsin and then, five-minute centrifugal separation was performed at 150×g to precipitate the cells. After the supernatant generated by the centrifugal separation was removed, the 10% FBS-containing DMEM was added to the precipitate (cell pellet) to prepare a cell suspension of about 2×10^5 cells/mL. The cell suspension was added by 1 mL to a well of a commercially available six-hole (well) plate (manufactured by AGC TECHNO GLASS Co., Ltd.) so as to seed the cell (about 2×10^5 cells/well). In addition, the 2 mM sample solution 1 was diluted with the 10% FBS-containing DMEM to prepare the sample solution 1 in which the concentration of the sample 1 was 20 μM. Then, 1 mL of the 20 μM sample solution 1 was added to the well (that is, so that the concentration of the sample 1 became 10 μM and the DMSO concentration became 0.5% in the culture solution in the well). After that, the cell was incubated for 20 hours at 37° C. under a 5% CO2 condition.
After the 20-hour incubation, the culture supernatant was removed from the well and the cells in the well were cleaned twice with 1 mL of PBS. Next, 200 μL of the 0.25% trypsin/EDTA solution was added to the well and the incubation was performed for three minutes at 37° C. After the incubation, 400 μL of the 10% FBS-containing DMEM was added to the well to deactivate the trypsin. Subsequently, the cell suspension in the well was transferred to a tube and the cells were collected. After that, 600 μL of PBS was added further to the well to clean the well. Then, PBS in the well was transferred to the tube, so that the cells remaining in the well were collected in the tube. This tube was subjected to five-minute centrifugal separation at 4° C. under a condition of 210×g. After the centrifugal separation, the supernatant was removed and the precipitate (cell pellet) was suspended (cleaned) with 1 mL of PBS, which was followed by the centrifugal separation under the same condition as that described above. After this operation was repeated twice, the supernatant was removed and thus, the cells (cell pellet) cultured in a culture medium containing the sample 1 were obtained.
Regarding the obtained cells (cell pellet), the cell membrane penetration of the sample 1 was analyzed using a flow cytometer. As the flow cytometer, On-Chip Flowcytometer (manufactured by On-Chip Biotechnologies Co., LTD.) was used.
For such an analysis, the obtained cell pellet was suspended with 50 μL of PBS. To this suspension, additionally, 50 μL of 2× sample buffer for the flow cytometer was added so as to prepare a cell suspension for analysis.
Using the aforementioned flow cytometer, gating based on forward scatter (FSC) and side scatter (SSC) was performed to set a gate about a cell group to be analyzed, and the fluorescence intensity was measured about the cell group in this gate. Note that the analysis was performed so that the cell group contained at least 10000 or more cells. The fluorescence intensity was measured using a fluorescence detector FL2 of the flow cytometer (optimum detection wavelength around 543 nm) capable of detecting the fluorescence wavelength of FAM. […]

Substance: 5 (6)-carboxyfluorescein [Example 7, reference compound]
- MFI (mean fluorescence intensity): 10.5

Substance: Ac-KSKKYTSWYVALKR-FAM (Ac-KSKKYTSWYVALKR-{FAM}) [Example 3]
- MFI (mean fluorescence intensity): 14.6

Substance: Ac-KSRKYTSWYVALKR-FAM (Ac-KSRKYTSWYVALKR-{FAM}) [Example 4]
- MFI (mean fluorescence intensity): 13.2

Substance: Ac-RSKKYTSWYVALKR-FAM (Ac-RSKKYTSWYVALKR-{FAM}) [Example 5]
- MFI (mean fluorescence intensity): 12.8

Substance: Ac-RSRKYTSWYVALKK-FAM [Example 6]
- MFI (mean fluorescence intensity): 11.1

Substance: Ac-RSRKYTSWYVALKR-FAM (Ac-RSRKYTSWYVALKR-{FAM}) [Example 2, reference compound]
- MFI (mean fluorescence intensity): 13.4

Substance: Ac-RSRKYTSWYVALKRWPC-FAM (Ac-RSRKYTSWYVALKRWPC-{FAM}) [Example 1]
- MFI (mean fluorescence intensity): 50.4
- cell membrane penetration / value of MFI, comparison in words (10 μM, 20 hours, compared with Example 2 (construct including the peptide 2)): remarkably higher
